Test results published in patent publication US20150157659A1, “METHOD OF INDUCING AUTOPHAGY AND ACTIVATING TOLL-LIKE RECEPTOR” (National Tsing Hua University, priority 2013, published 2015).

Columns and labels:
[1] = test system: RAW 264.7 cells; test: Immunofluorescence microscopy for Beclin 1 and LC3; format: cell-based, mouse
Description: The cells were fixed and permeabilized as described previously, followed by extensive washing and primary antibody staining (1:100 dilution) for 1 h at 4° C. in the dark. The primary antibody was specific for LC3 (4108, Cell Signaling Technology), Beclin 1 (ab55878, Abcam), TLR4 (14-9924, eBioscience), TLR9 (ab17236, abcam), MyD88 (ab2068, abcam), TRAF6 (ab33915, abcam), phosphorylated NF-κB (3033, Cell Signaling Technology) or IRF3 (sc-15991, Santa Cruz Biotechnology). After washing, the cells were incubated with the goat anti-mouse antibody conjugated with Alexa 488 (for TLR9, Invitrogen), goat anti-rabbit antibody conjugated with Alexa 488 (for LC3, MyD88, TRAF6 and NF-κB, Invitrogen) or donkey anti-goat IgG conjugated with Dylight 488 (for IRF3, Jackson ImmunoResearch) for 1 h at 4° C. in the dark. After washing, the cells were counterstained with 4,6-diamidino-2-phenylindole (DAPI, Vector Labs) and visualized with a confocal microscope (Nikon TE2000 equipped with the confocal upgrade laser kit). Fifty to one hundred cells in the images for LC3 were counted for quantification of LC3+ cells.
Beclin 1 and LC3 are two key proteins associated with the autophagy pathway and are common indicators of autophagy induction. […]

[2] = test system: RAW264.7; test: Cell morphology and vacuoles under phase contrast microscope after GO treatment; format: cell-based, mouse; settings: LPS 10 μg/ml, 24 h
Description: The mouse macrophage cell line RAW264.7 was maintained in Dulbecco's modified Eagles medium (DMEM, Gibco) containing 10% fetal bovine serum (FBS, Gibco) and subcultured upon 70-80% confluency. For GO treatment, the cells were seeded to 6-well plates (3×10^5 cells/cm^2) overnight and cultured using the medium supplemented with GO at final concentrations of 5 or 100 μg/ml for 24 h. In parallel, the cells were treated with LPS (10 μg/ml, Sigma) for 24 h as the positive control. After the treatment, the cell morphology and vacuoles were observed under the phase contrast microscope.
To examine how GO nanosheets influenced the macrophage, RAW 264.7 cells were incubated with small GO at either 5 μg/ml (designated as GO5 group) or 100 μg/ml (designated as GO100 group) for 24 h.

[3] = test system: RAW 264.7 cells; test: Cell death and TUNEL apoptosis of treated macrophages; format: cell-based; settings: LPS 10 μg/ml
[4] = test system: RAW 264.7 cells; test: Transmission electron microscopy of autophagic vacuoles; format: cell-based, mouse; settings: LPS 10 μg/ml
Description: The cells were harvested, centrifuged (215×g, 10 min), washed with cold PBS and fixed with 2.5% glutaraldehyde (in 0.2 M sodium cacodylate, pH 7.4). The samples were then fixed in 1% OsO4 for 1 h at 4° C., dehydrated with increasing concentrations of ethanol, embedded in spur resin and sectioned. The ultrathin sections were stained with uranyl acetate and observed under the TEM.

[5] = test system: RAW 264.7 cells; test: ELISA of cytokines in supernatant of treated macrophage cells; format: cell-based, mouse; settings: LPS
Description: At 24 h post-treatment, the supernatant was collected from the GO-treated cell culture and analyzed using ELISA kits specific for mouse IL-2, IL-10, TNF-α, IFN-β and IFN-γ. The cells were lysed for Western blot using primary antibodies (1:1000 dilution) specific for LC3, Beclin 1 or β-actin (A-2066, Sigma) and the secondary antibody was HRP-conjugated IgG (1:5000 dilution, Amersham Biosciences). The images were developed using the GeneGnome HR scanner (Syngene).

Molecule | GO100-triggered formation of LC3+ aggregate dots ([1]; pre-treatment of cells with the autophagy inhibitor) | formation of vacuoles inside the cells [2] | cell death [3] | autophagic vacuoles (AV) by TEM [4] | Beclin 1 and LC3 dots by immunofluorescence ([1]; LPS-treated cells) | cytokine secretion [5]
Cn1cnc(N)c2ncnc1-2 [3-MA, 3-methyl adenine] | diminished the GO100-triggered formation of LC3+ aggregate dots | – | – | – | – | –
lipopolysaccharides [LPS] | – | also observed in the LPS-treated cells | also observed in the LPS-treated cells | triggered more prominent AV | also observed in the LPS-treated cells | cytokine secretion triggered by LPS
